According to patent US10294202B2, “Pyrrolidinones as herbicides” (FMC Corporation, priority 2013, dated 2019):

How the values were obtained:
kochia = assay: Test D pre-/postemergence herbicide test; type: in vivo, Kochia scoparia; conditions: for Plant response rating: Kochia, scale 0 to 100; for Plant response rating, Kochia: scale 0 to 100 (0 no effect, 100 complete control)
Text: (§1) Seeds of plant species selected from bluegrass (annual bluegrass, Poa annua), blackgrass (Alopecurus myosuroides), canarygrass (littleseed canarygrass, Phalaris minor), chickweed (common chickweed, Stellaria media), galium (catchweed bedstraw, Galium aparine), bromegrass, downy (downy bromegrass, Bromus tectorum), field poppy (Papaver rhoeas), field violet (Viola arvensis), foxtail, green (green foxtail, Setaria viridis), deadnettle (henbit deadnettle, Lamium amplexicaule), ryegrass, Italian (Italian ryegrass, Lolium multiflorum), kochia (Kochia scoparia), lambsquarters (Chenopodium album), oilseed rape (Brassica napus), pigweed (Amaranthus retroflexus), chamomile (scentless chamomile, Matricaria inodora), Russian thistle (Salsola kali), speedwell (bird's-eye speedwell, Veronica persica), barley, spring (spring barley, Hordeum vulgare), wheat, spring (spring wheat, Triticum aestivum), buckwheat, wild (wild buckwheat, Polygonum convolvulus), mustard, wild (wild mustard, Sinapis arvensis), oat, wild (wild oat, Avena fatua), radish, wild (wild radish, Raphanus raphanistrum), […]), barley, winter (winter barley, Hordeum vulgare), and wheat, winter (winter wheat, Triticum aestivum) were planted into a silt loam soil and treated preemergence with test chemicals formulated in a non-phytotoxic solvent mixture which included a surfactant. At the same time, these species were planted in pots containing Redi-Earth® planting medium (Scotts Company, 14111 Scottslawn Road, Marysville, Ohio 43041) comprising spaghnum peat moss, vermiculite, wetting agent and starter nutrients and treated with postemergence applications of the test chemicals formulated in the same manner. Plants ranged in height from 2 to 18 cm (1- to 4-leaf stage). Treated plants and controls were maintained in a controlled growth environment for 7 to 21 days after which time all species were compared to controls and visually evaluated. Plant response ratings, summarized in Table D, are based on a scale of 0 to 100 where 0 is no effect and 100 is complete control. A dash (-) response means no test result.

lambsquarters = assay: Test D pre-/postemergence herbicide test; type: in vivo, Chenopodium album; conditions: for Plant response rating: Lambsquarters, scale 0 to 100; for Plant response rating, Lambsquarters: scale 0 to 100 (0 no effect, 100 complete control)
Text: as §1

sprangletop, Brdd. = assay: Test F flood (paddy) test; type: in vivo, Leptochloa fascicularis; conditions: 21 d, scale 0-100
Text: Three plastic pots (ca. 16-cm diameter) per rate were partially filled with sterilized Tama silt loam soil comprising a 35:50:15 ratio of sand, silt and clay and 2.6% organic matter. Separate plantings for each of the three pots were as follows. Seeds from the U.S. of monochoria (Monochoria vaginalis), sedge, umbrella (small-flower umbrella sedge, Cyperus difformis), bulrush, […] bulrush, Scirpus juncoides), and […] (purple […] coccinea), were planted into one 16-cm pot for each rate. Seeds from the U.S. of flatsedge, rice (rice flatsedge, Cyperus iria), sprangletop, Brdd. (bearded sprangletop, Leptochloa fascicularis), one stand of 9 or 10 water seeded rice seedlings (Rice, W.S. Jap, Oryza sativa cv. 'Japonica-[…]' or Rice, W.S. Ind, 'Indica'), and two stands of 3 or 4 seedlings of rice, transplanted (transplanted rice, Oryza sativa cv. 'Japonica-[…]') were planted into one 16-cm pot for each rate. Seeds from the U.S. of barnyardgrass (Echinochloa crus-galli), […] (common […], Alisma plantago-aquatica), and watergrass, late (late watergrass, Echinochloa oryzicola) were planted into one 16-cm pot for each rate. Plantings were sequential so that crop and weed species were at the 2.0 to 2.5-leaf stage at time of treatment. Potted plants were grown in a greenhouse with day/night temperature settings of 30/27° C., and supplemental balanced lighting was provided to maintain a 16-h photoperiod. Test pots were maintained in the greenhouse until test completion. At time of treatment, test pots were flooded to 3 cm above the soil surface, treated by application of test compounds directly to the paddy water, and then maintained at that water depth for the duration of the test. Effects of treatments on rice and weeds were visually evaluated by comparison to untreated controls after 21 d. Plant response ratings, summarized in Table F, are based on a scale of 0 to 100 where 0 is no effect and 100 is complete control. A dash (-) response means no test result.

monochoria = assay: Test F flood (paddy) test; type: in vivo, Monochoria vaginalis; conditions: 21 d, scale 0-100
Procedure, shortened: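 Greenhouse paddy, 30/27 °C day/night, 16-h light; sterilized Tama silt loam, 2.6% OM. Plants at 2.0–2.5 leaves; flood 3 cm, compound added directly to water. Visual score at 21 d, 0 = no effect, 100 = complete control, relative to untreated.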

SMILES	Plant response rating (kochia; Postemergence, 31 g ai/ha)	Plant response rating (kochia; Postemergence, 62 g ai/ha)	Plant response rating (kochia; Postemergence, 125 g ai/ha)	Plant response rating, Kochia (kochia; Preemergence, 62 g ai/ha)	Plant response rating, Kochia (kochia; Preemergence, 31 g ai/ha)	Plant response rating (kochia; Preemergence, 125 g ai/ha)	Plant response rating (kochia; Preemergence, 250 g ai/ha)	Plant response rating (lambsquarters; Postemergence, 31 g ai/ha)	Plant response rating (lambsquarters; Postemergence, 62 g ai/ha)	Plant response rating (lambsquarters; Postemergence, 125 g ai/ha)	Plant response rating, Lambsquarters (lambsquarters; Preemergence, 62 g ai/ha)	Plant response rating, Lambsquarters (lambsquarters; Preemergence, 31 g ai/ha)	Plant response rating (lambsquarters; Preemergence, 125 g ai/ha)	Plant response rating (lambsquarters; Preemergence, 250 g ai/ha)	Plant response rating, Sprangletop, Brdd. (sprangletop, Brdd.; 125 g ai/ha)	Plant response rating, Sprangletop, Brdd. (sprangletop, Brdd.; 250 g ai/ha)	Plant response rating, Sprangletop, Brdd. (sprangletop, Brdd.; 500 g ai/ha)	Plant response rating, Monochoria (monochoria; 125 g ai/ha)	Plant response rating, Monochoria (monochoria; 250 g ai/ha)	Plant response rating, Monochoria (monochoria; 500 g ai/ha)	also measured
O=C1NCC(c2ccc(F)c(F)c2)C1C(=O)Nc1ccccc1C(F)(F)F (racemic) [Compound 6]	5	5	5	30	0	40	50	10	20	20	0	0	0	0							Plant response rating (kochia; Postemergence, 16 g ai/ha): 0; Plant response rating (kochia; Postemergence, 250 g ai/ha): 10; Plant response rating, Kochia (kochia; Preemergence, 16 g ai/ha): 0; Plant response rating (lambsquarters; Postemergence, 16 g ai/ha): 0; Plant response rating (lambsquarters; Postemergence, 250 g ai/ha): 30; Plant response rating, Lambsquarters (lambsquarters; Preemergence, 16 g ai/ha): 0
O=C1NCC(c2cccc(C(F)F)c2)C1C(=O)Nc1ccccc1F (racemic) [Compound 210]															100	100	100	65	85	100	
CN1CC(c2ccc(F)c(F)c2)C(C(=O)Nc2cccc(F)c2F)C1=O (stereo not shown) [Compound 303]															80	85	90	100	100	100	Plant response rating, Sprangletop, Brdd. (sprangletop, Brdd.; 62 g ai/ha): 70; Plant response rating, Monochoria (monochoria; 62 g ai/ha): 100
O=C1NCC(c2ccc(F)c(F)c2)C1C(=O)Nc1cccc(F)c1F (racemic) [Compound 101]															85	95	95	100	100	100	Plant response rating, Sprangletop, Brdd. (sprangletop, Brdd.; 64 g ai/ha): 75; Plant response rating, Monochoria (monochoria; 64 g ai/ha): 75
O=C1NCCC1C(=O)N(c1ccc(F)c(F)c1)c1ccccc1F (stereo not shown) [Compound 5, N-(3,4-difluorophenyl)-N-(2-fluorophenyl)-2-oxo-3-pyrrolidinecarboxamide]															85	85	85	75	75	75	Plant response rating, Sprangletop, Brdd. (sprangletop, Brdd.; 1000 g ai/ha): 85; Plant response rating, Sprangletop, Brdd. (sprangletop, Brdd.; 2000 g ai/ha): 90; Plant response rating, Monochoria (monochoria; 1000 g ai/ha): 75; Plant response rating, Monochoria (monochoria; 2000 g ai/ha): 75
O=C1NCC(c2ccc(F)c(C(F)(F)F)c2)C1C(=O)Nc1cccc(F)c1F (racemic) [Compound 77]				75	35	80	85				85	85	90	90							
O=C1NCC(c2ccc(C(F)(F)F)cc2)C1C(=O)Nc1ccccc1F (stereo not shown) [Compound 231]	55	60	60	20	0		85	55	50	70	80	45		90							Plant response rating (kochia; Postemergence, 250 g ai/ha): 65; Plant response rating, Kochia (kochia; Preemergence, 125 g ai/ha): 80; Plant response rating (lambsquarters; Postemergence, 250 g ai/ha): 75; Plant response rating, Lambsquarters (lambsquarters; Preemergence, 125 g ai/ha): 90
O=C1NCC(c2cc(F)c(F)cc2F)C1C(=O)Nc1cccc(F)c1F (stereo not shown) [Compound 50]	15	15	0	10	10	0		5	5	20	0	0	0								Plant response rating (kochia; Postemergence, 16 g ai/ha): 10; Plant response rating, Kochia (kochia; Preemergence, 16 g ai/ha): 5; Plant response rating (lambsquarters; Postemergence, 16 g ai/ha): 5; Plant response rating, Lambsquarters (lambsquarters; Preemergence, 16 g ai/ha): 0
O=C1NCC(c2ccc(Cl)c(F)c2)C1C(=O)Nc1cccc(F)c1F (stereo not shown) [Compound 52]	0	20	25	20	20	20	40	0	0	30	0	0	20	20							Plant response rating (kochia; Postemergence, 16 g ai/ha): 0; Plant response rating (kochia; Postemergence, 250 g ai/ha): 35; Plant response rating, Kochia (kochia; Preemergence, 16 g ai/ha): 0; Plant response rating (lambsquarters; Postemergence, 16 g ai/ha): 0; Plant response rating (lambsquarters; Postemergence, 250 g ai/ha): 30; Plant response rating, Lambsquarters (lambsquarters; Preemergence, 16 g ai/ha): 0
